According to ChEMBL document CHEMBL3885861, “Open TG-GATES”:

Species on record: Rattus norvegicus
Assay: Open TG-GATES - Regimen: Single
Assay type: toxicity, organism-based, Sprague-Dawley
Design: regimen Single, gender Male, age 6 weeks
Conditions: in vivo, ip, 0.01 mg/kg, route intraperitoneal injection, dose 10 ug/Kg, dose level High; for APTT / Bas / Eos / Fbg / Hb / Ht / Lym / MCH / MCHC / MCV / Mono / Neu / PT / Plat / RBC / Ret / WBC: tissue Blood; for KIDNEY_L / KIDNEY_R / KIDNEY_TOTAL: tissue Kidney; for LIVER: tissue Liver; for A/G / ALP / ALT / AST / BUN / CRE / Ca / Cl / DBIL / GLC / IP / K / LDH / Na / PL / RALB / TBIL / TC / TG / TP / gamma-GTP: tissue Plasma

H-KGDRLS-OH [TNF-ALPHA]
TERMINAL_BW (3 h): 199.5 g | APTT (3 h): 15.7 s | Bas (3 h): 0.2% | Eos (3 h): 0.4% | Fbg (3 h): 279.2 mg/dL | Hb (3 h): 13.2 g/dL | Ht (3 h): 40.1% | Lym (3 h): 75% | MCH (3 h): 21.5 pg | MCHC (3 h): 32.8% | MCV (3 h): 65.3 fL | Mono (3 h): 4.4% | Neu (3 h): 18.8% | PT (3 h): 15.4 s | Plat (3 h): 115.5 x10_4/uL | RBC (3 h): 615.2 x10_4/ul | Ret (3 h): 9.2% | WBC (3 h): 82.2 x10_2/uL | KIDNEY_L (3 h): 0.9 g | KIDNEY_R (3 h): 0.9 g | KIDNEY_TOTAL (3 h): 1.7 g | LIVER (3 h): 8.8 g | A/G (3 h): 0.9 | ALP (3 h): 1307.2 IU/L | ALT (3 h): 43.6 IU/L | AST (3 h): 79.2 IU/L | BUN (3 h): 10.4 mg/dL | CRE (3 h): 0.2 mg/dL | Ca (3 h): 10.7 mg/dL | Cl (3 h): 105.8 meq/L | DBIL (3 h): 0.01 mg/dL | GLC (3 h): 167 mg/dL | IP (3 h): 9.8 mg/dL | K (3 h): 4 meq/L | LDH (3 h): 71 IU/L | Na (3 h): 142.4 meq/L | PL (3 h): 141.2 mg/dL | RALB (3 h): 2.4 g/dL | TBIL (3 h): 0.062 mg/dL | TC (3 h): 77.8 mg/dL | TG (3 h): 50.4 mg/dL | TP (3 h): 5.2 g/dL | gamma-GTP (3 h): 1.2 IU/L | TERMINAL_BW (6 h): 194.4 g | APTT (6 h): 18.1 s | Bas (6 h): 0% | Eos (6 h): 0.2% | Fbg (6 h): 349.4 mg/dL | Hb (6 h): 13.2 g/dL | Ht (6 h): 40.3% | Lym (6 h): 62.4% | MCH (6 h): 21 pg | MCHC (6 h): 32.9% | MCV (6 h): 63.8 fL | Mono (6 h): 2.6% | Neu (6 h): 34.2% | PT (6 h): 15 s | Plat (6 h): 106.9 x10_4/uL | RBC (6 h): 632.2 x10_4/ul | Ret (6 h): 7.9% | WBC (6 h): 58.5 x10_2/uL | KIDNEY_L (6 h): 0.9 g | KIDNEY_R (6 h): 0.9 g | KIDNEY_TOTAL (6 h): 1.8 g | LIVER (6 h): 8.5 g | A/G (6 h): 0.8 | ALP (6 h): 1422.6 IU/L | ALT (6 h): 37.6 IU/L | AST (6 h): 73 IU/L | BUN (6 h): 8.6 mg/dL | CRE (6 h): 0.2 mg/dL | Ca (6 h): 10.8 mg/dL | Cl (6 h): 105.4 meq/L | DBIL (6 h): 0.008 mg/dL | GLC (6 h): 170.8 mg/dL | IP (6 h): 9.8 mg/dL | K (6 h): 3.8 meq/L | LDH (6 h): 67.2 IU/L | Na (6 h): 143.2 meq/L | PL (6 h): 162.2 mg/dL | RALB (6 h): 2.5 g/dL | TBIL (6 h): 0.06 mg/dL | TC (6 h): 91.8 mg/dL | TG (6 h): 40.2 mg/dL | TP (6 h): 5.4 g/dL | gamma-GTP (6 h): 1.4 IU/L | TERMINAL_BW (9 h): 194.6 g | APTT (9 h): 19.4 s | Bas (9 h): 0% | Eos (9 h): 0.6% | Fbg (9 h): 371 mg/dL | Hb (9 h): 13.4 g/dL | Ht (9 h): 40.6% | Lym (9 h): 69.8% | MCH (9 h): 21.4 pg | MCHC (9 h): 32.9% | MCV (9 h): 64.8 fL | Mono (9 h): 1.8% | Neu (9 h): 26.8% | PT (9 h): 15.3 s | Plat (9 h): 105.5 x10_4/uL | RBC (9 h): 627.6 x10_4/ul | Ret (9 h): 8.3% | WBC (9 h): 66.7 x10_2/uL | KIDNEY_L (9 h): 0.9 g | KIDNEY_R (9 h): 0.9 g | KIDNEY_TOTAL (9 h): 1.7 g | LIVER (9 h): 7.9 g | A/G (9 h): 0.8 | ALP (9 h): 1174.4 IU/L | ALT (9 h): 32.6 IU/L | AST (9 h): 62.8 IU/L | BUN (9 h): 7.2 mg/dL | CRE (9 h): 0.2 mg/dL | Ca (9 h): 10.8 mg/dL | Cl (9 h): 104.4 meq/L | DBIL (9 h): 0.004 mg/dL | GLC (9 h): 167.2 mg/dL | IP (9 h): 10.2 mg/dL | K (9 h): 3.9 meq/L | LDH (9 h): 55.2 IU/L | Na (9 h): 141.6 meq/L | PL (9 h): 159.2 mg/dL | RALB (9 h): 2.5 g/dL | TBIL (9 h): 0.064 mg/dL | TC (9 h): 96.6 mg/dL | TG (9 h): 22.2 mg/dL | TP (9 h): 5.5 g/dL | gamma-GTP (9 h): 1.4 IU/L | TERMINAL_BW (24 h): 211.6 g | APTT (24 h): 15.6 s | Bas (24 h): 0.2% | Eos (24 h): 0.8% | Fbg (24 h): 323.4 mg/dL | Hb (24 h): 13.1 g/dL | Ht (24 h): 40.2% | Lym (24 h): 80.4% | MCH (24 h): 21.5 pg | MCHC (24 h): 32.6% | MCV (24 h): 65.8 fL | Mono (24 h): 3% | Neu (24 h): 15% | PT (24 h): 15.5 s | Plat (24 h): 116.4 x10_4/uL | RBC (24 h): 610.2 x10_4/ul | Ret (24 h): 8.5% | WBC (24 h): 77.3 x10_2/uL | KIDNEY_L (24 h): 1 g | KIDNEY_R (24 h): 0.9 g | KIDNEY_TOTAL (24 h): 1.9 g | LIVER (24 h): 9.8 g | A/G (24 h): 0.8 | ALP (24 h): 1565.6 IU/L | ALT (24 h): 47.8 IU/L | AST (24 h): 69.6 IU/L | BUN (24 h): 15.4 mg/dL | CRE (24 h): 0.2 mg/dL | Ca (24 h): 11.1 mg/dL | Cl (24 h): 106.6 meq/L | DBIL (24 h): 0.012 mg/dL | GLC (24 h): 190 mg/dL | IP (24 h): 8.9 mg/dL | K (24 h): 4.4 meq/L | LDH (24 h): 93.6 IU/L | Na (24 h): 142.2 meq/L | PL (24 h): 156 mg/dL | RALB (24 h): 2.6 g/dL | TBIL (24 h): 0.042 mg/dL | TC (24 h): 83.6 mg/dL | TG (24 h): 76.2 mg/dL | TP (24 h): 5.7 g/dL | gamma-GTP (24 h): 1 IU/L
